# Tested on: 231/LM2-4 human breast cancer cells
# Experiment: Advanced metastatic breast cancer model (231/LM2-4), survival after primary tumor resection
# Assay type: in vivo, CB-17 SCID mice
# Conditions: for Median survival: therapy initiated 19 days after resection
# Excerpt: The original cell line, MDA-MB 231, was a gift from Dr. Jeffrey F. Lemontt in September, 1989, together with other variants of this cell line. Cell line 231/LM2-4 (human breast cancer cells) used in the study was derived by one of the inventors as described in Munoz R, Man S, Shaked Y, et al. Highly efficacious non-toxic treatment for advanced metastatic breast cancer using combination UFT-cyclophosphamide metronomic chemotherapy, Cancer Res 2006; 66:3386-91.
# Two million 231/LM2-4 human breast cancer cells were implanted into the mammary fat pad of 6-8 week old female CB-17 SCID mice purchased from Charles River Canada. Twenty days later when tumor volumes were approximately 400 mm^3, the primary tumors were surgically resected. Therapy was initiated 19 days after resection when visceral metastases were established in sites such as lung and liver. Mice were randomized into groups of 4 and treated as follows: 1) Control—vehicle; 2) Low dose metronomic oral topotecan; 3) pazopanib; 4) Low dose metronomic oral topotecan+pazopanib; 5) Maximum tolerated dose topotecan; and 6) maximum tolerated dose topotecan+pazopanib. The schedule and doses of drugs used were metronomic oral topotecan 1 mg/kg/d by gavage, maximum tolerated dose topotecan 1.5 mg/kg by gavage for 5 consecutive days followed by 16 days break ip, pazopanib 150 mg/kg/d by gavage, and control mice were given the topotecan vehicle and/or pazopanib vehicle. The oral topotecan and pazopanib preparations were mixed just prior to administration to avoid possible drug interaction. Institutional guidelines for survival endpoint were followed.
compound,measurement,setting,value
"CC[C@@]1(O)C(=O)OCc2c1cc1n(c2=O)Cc2cc3c(CN(C)C)c(O)ccc3nc2-1 [topotecan, (S)-10-[(dimethylamino)methyl]-4-ethyl-4,9-dihydroxy-1H-pyrano[3′,4′:6,7]indolizino [1,2-b]quinoline-3,14-(4H,12H)-dione]",Survival benefit compared to control untreated mice (FIG. 1),"LDM oral topotecan alone, 1 mg/kg/d by gavage",neither low dose metronomic (LDM) oral topotecan alone nor pazopanib alone had any survival benefit
same,Median survival,"low dose metronomic (LDM) oral topotecan alone, 1 mg/kg/d by gavage",56 days
same,Median survival,maximum tolerated dose (MTD) topotecan 1.5 mg/kg for 5 consecutive days followed by 16 days break,63 days

# — US20170027938A1, “Combination” (Novartis AG, priority 2011, published 2017)
